Several values for one entry are separate records, joined by “and”; a condition that tells them apart may be missing. Equal values may be shown once.
Test system: 993429-296-R-J1-PDC complex spheroid growth, percent test/control
Test: Anticancer human tumor 993429-296-R-J1-PDC patient-derived uterine sarcoma cell line growth inhibition [Asc]
Conditions: for viability, T/C: stronger effect = lower value; active means viability on the fitted dose curve at most 10% of control; inactive means the rest
Summary of the method: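 Spheroid model: tumor line + HUVEC + hMSC. Single agents and combinations; top conc. at/near clinical Cmax (10 microM if undetermined), half-log dilutions. DMSO stocks at 800-fold test concentration.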

[1] = curve of first compound, second compound 0.1 µM
[2] = curve of first compound, second compound 0.316 µM
[3] = curve of first compound, second compound 1 µM
[4] = second compound 0.1 µM, first compound 0.000949 µM
[5] = second compound 0.1 µM, first compound 0.003 µM
[6] = second compound 0.1 µM, first compound 0.00949 µM
[7] = second compound 0.1 µM, first compound 0.03 µM
[8] = second compound 0.1 µM, first compound 0.0949 µM
[9] = second compound 0.1 µM, first compound 0.3 µM
[10] = second compound 0.316 µM, first compound 0.000949 µM
[11] = second compound 0.316 µM, first compound 0.003 µM
[12] = second compound 0.316 µM, first compound 0.00949 µM
[13] = second compound 0.316 µM, first compound 0.03 µM
[14] = second compound 0.316 µM, first compound 0.0949 µM
[15] = second compound 0.316 µM, first compound 0.3 µM
[16] = second compound 1 µM, first compound 0.000949 µM
[17] = second compound 1 µM, first compound 0.003 µM
[18] = second compound 1 µM, first compound 0.00949 µM
[19] = second compound 1 µM, first compound 0.03 µM
[20] = second compound 1 µM, first compound 0.0949 µM
[21] = second compound 1 µM, first compound 0.3 µM
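Further: spheroids exposed to compounds for seven days.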

CCN1CCN(Cc2ccc(Nc3ncc(F)c(-c4cc(F)c5nc(C)n(C(C)C)c5c4)n3)nc2)CC1 + CCN1C(C(=O)NC23CCC(C(=O)O)(CC2)CC3)C(c2cccc(Cl)c2F)C2(C(=O)Nc3cc(Cl)ccc32)C12CCCCC2
inactive: viability, T/C (second compound 0.03 µM, first compound 0.00316 µM) 101% | viability, T/C (second compound 0.03 µM, first compound 0.01 µM) 98.5% | viability, T/C (second compound 0.03 µM, first compound 0.0316 µM) 102% | viability, T/C (second compound 0.03 µM, first compound 0.1 µM) 110% | viability, T/C (second compound 0.03 µM, first compound 0.316 µM) 103% | viability, T/C (second compound 0.03 µM, first compound 1 µM) 125% | viability, T/C (second compound 0.0949 µM, first compound 0.00316 µM) 99.8% | viability, T/C (second compound 0.0949 µM, first compound 0.01 µM) 107% | viability, T/C (second compound 0.0949 µM, first compound 0.0316 µM) 97.3% | viability, T/C (second compound 0.0949 µM, first compound 0.1 µM) 95.5% | viability, T/C (second compound 0.0949 µM, first compound 0.316 µM) 110% | viability, T/C (second compound 0.0949 µM, first compound 1 µM) 98.3% | viability, T/C (second compound 0.3 µM, first compound 0.00316 µM) 102% | viability, T/C (second compound 0.3 µM, first compound 0.01 µM) 105% | viability, T/C (second compound 0.3 µM, first compound 0.0316 µM) 89.5% | viability, T/C (second compound 0.3 µM, first compound 0.1 µM) 109% | viability, T/C (second compound 0.3 µM, first compound 0.316 µM) 120% | viability, T/C (second compound 0.3 µM, first compound 1 µM) 104% | viability, T/C (second compound 0.949 µM, first compound 0.00316 µM) 103% | viability, T/C (second compound 0.949 µM, first compound 0.01 µM) 99.5% | viability, T/C (second compound 0.949 µM, first compound 0.0316 µM) 106% | viability, T/C (second compound 0.949 µM, first compound 0.1 µM) 99.9% | viability, T/C (second compound 0.949 µM, first compound 0.316 µM) 107% | viability, T/C (second compound 0.949 µM, first compound 1 µM) 131% | viability, T/C (second compound 3 µM, first compound 0.00316 µM) 97.2% | viability, T/C (second compound 3 µM, first compound 0.01 µM) 92.9% | viability, T/C (second compound 3 µM, first compound 0.0316 µM) 99.7% | viability, T/C (second compound 3 µM, first compound 0.1 µM) 77.8% | viability, T/C (second compound 3 µM, first compound 0.316 µM) 84.5% | viability, T/C (second compound 3 µM, first compound 1 µM) 115%
> 1 µM: IC50 (curve of first compound, second compound 0.03 µM) | IC50 (curve of first compound, second compound 0.0949 µM) | IC50 (curve of first compound, second compound 0.3 µM) | IC50 (curve of first compound, second compound 0.949 µM) | IC50 (curve of first compound, second compound 3 µM)

NC(=O)C(=Cn1cnc(-c2cc(C(F)(F)F)cc(C(F)(F)F)c2)n1)c1cncnc1 + Cc1c(S(C)(=O)=O)c(-c2cc(F)cc(N3CCN(c4ccc(NS(=O)(=O)c5ccc(NC(CCN6CCC(C(=O)OCCCP(=O)(O)O)CC6)CSc6ccccc6)c(S(=O)(=O)C(F)(F)F)c5)cc4)CC3)c2)c(-c2ccc(Cl)cc2)n1C(C)C
active: viability, T/C [8] 5.75% | viability, T/C [9] 1.24% | viability, T/C [14] 2.18% | viability, T/C [15] 0.54% | viability, T/C [19] 9.81% | viability, T/C [20] 1.61% | viability, T/C [21] 0.15% | viability, T/C (second compound 3.16 µM, first compound 0.0949 µM) 2.12% | viability, T/C (second compound 3.16 µM, first compound 0.3 µM) 0.26% | viability, T/C (second compound 10 µM, first compound 0.0949 µM) 1.63% | viability, T/C (second compound 10 µM, first compound 0.3 µM) 0.26%
0.00562 µM: IC50 [2]
0.00794 µM: IC50 [1]
inactive: viability, T/C [4] 79.2% | viability, T/C [5] 63% | viability, T/C [6] 50.8% | viability, T/C [7] 17.5% | viability, T/C [10] 67% | viability, T/C [11] 59.9% | viability, T/C [12] 41.4% | viability, T/C [13] 13.1% | viability, T/C [16] 48.8% | viability, T/C [17] 48.6% | viability, T/C [18] 32.4% | viability, T/C (second compound 3.16 µM, first compound 0.000949 µM) 50.8% | viability, T/C (second compound 3.16 µM, first compound 0.003 µM) 35.8% | viability, T/C (second compound 3.16 µM, first compound 0.00949 µM) 24.6% | viability, T/C (second compound 3.16 µM, first compound 0.03 µM) 11.9% | viability, T/C (second compound 10 µM, first compound 0.000949 µM) 75.6% | viability, T/C (second compound 10 µM, first compound 0.003 µM) 71.1% | viability, T/C (second compound 10 µM, first compound 0.00949 µM) 49.9% | viability, T/C (second compound 10 µM, first compound 0.03 µM) 13.7%
< 0.000949 µM: IC50 [3]
0.000989 µM: IC50 (curve of first compound, second compound 3.16 µM)
0.00935 µM: IC50 (curve of first compound, second compound 10 µM)

O=C(c1ccc(F)c(F)c1Nc1ccc(I)cc1F)N1CC(O)([C@@H]2CCCCN2)C1
active: viability, T/C (compound 1 µM) 1.26% and 1.77% and 3.59%
inactive: viability, T/C (compound 0.00316 µM) 94.3% and 75.1% and 94.5% | viability, T/C (compound 0.01 µM) 86% and 69.7% and 83.4% | viability, T/C (compound 0.0316 µM) 62.6% and 54.8% and 79.4% | viability, T/C (compound 0.1 µM) 41% and 34.7% and 70.9% | viability, T/C (compound 0.316 µM) 14.8% and 10.7% and 39.1%
0.0614 µM and 0.0426 µM and 0.212 µM: IC50 (curve of compound)

CCN1C(C(=O)NC23CCC(C(=O)O)(CC2)CC3)C(c2cccc(Cl)c2F)C2(C(=O)Nc3cc(Cl)ccc32)C12CCCCC2 (stereo not given)
> 3 µM: IC50 (compound alone, run of 09/27/2022) | IC50 (curve of compound)
inactive: viability, T/C (compound 0.00949 µM) 92.7% and 92.5%

NC(=O)C(=Cn1cnc(-c2cc(C(F)(F)F)cc(C(F)(F)F)c2)n1)c1cncnc1 + CNC(C)C(=O)NC1CN(S(=O)(=O)c2cccc(S(=O)(=O)N3CCC4CCC(C(=O)NC(c5ccccc5)c5ccccc5)N4C(=O)C(NC(=O)C(C)NC)C3)c2)CCC2CCC(C(=O)NC(c3ccccc3)c3ccccc3)N2C1=O
0.0081 µM: IC50 [3]
inactive: viability, T/C (second compound 0.01 µM, first compound 0.000949 µM) 62.7% | viability, T/C (second compound 0.01 µM, first compound 0.003 µM) 65.6% | viability, T/C (second compound 0.01 µM, first compound 0.00949 µM) 55.4% | viability, T/C (second compound 0.01 µM, first compound 0.03 µM) 33.1% | viability, T/C (second compound 0.01 µM, first compound 0.0949 µM) 14.9% | viability, T/C (second compound 0.0316 µM, first compound 0.000949 µM) 63.6% | viability, T/C (second compound 0.0316 µM, first compound 0.003 µM) 63.1% | viability, T/C (second compound 0.0316 µM, first compound 0.00949 µM) 52.1% | viability, T/C (second compound 0.0316 µM, first compound 0.03 µM) 33% | viability, T/C (second compound 0.0316 µM, first compound 0.0949 µM) 14.9% | viability, T/C [4] 58.3% | viability, T/C [5] 61.1% | viability, T/C [6] 48.1% | viability, T/C [7] 33.3% | viability, T/C [8] 16% | viability, T/C [10] 57.6% | viability, T/C [11] 60% | viability, T/C [12] 43.7% | viability, T/C [13] 29% | viability, T/C [14] 15.8% | viability, T/C [16] 52% | viability, T/C [17] 62.6% | viability, T/C [18] 47.8% | viability, T/C [19] 28.5% | viability, T/C [20] 14.1%
0.0128 µM: IC50 (curve of first compound, second compound 0.01 µM)
0.00599 µM: IC50 [2]
active: viability, T/C (second compound 0.01 µM, first compound 0.3 µM) 8.47% | viability, T/C (second compound 0.0316 µM, first compound 0.3 µM) 8% | viability, T/C [9] 4.45% | viability, T/C [15] 8.88% | viability, T/C [21] 5.77%
0.0111 µM: IC50 (curve of first compound, second compound 0.0316 µM)
0.00896 µM: IC50 [1]

Reference: PubChem BioAssay AID1963446 (Molecular Pharmacology Branch, DTP, NCI, 2024)
